Experimental data published in ChEMBL document CHEMBL4385615, “Design and Synthesis of Type-IV Inhibitors of BRAF Kinase That Block Dimerization and Overcome Paradoxical MEK/ERK Activation” (J Med Chem, 2019).
Blank lines part the entries; values can stand above or below the compound they belong to. Peptide text beside a SMILES is read from it.

Tests used:
[1] = target: T1, Serine/threonine-protein kinase B-raf (Homo sapiens, UniProt P15056); test: Binding affinity to BRAF (unknown origin) by intrinsic tryptophan fluorescence assay
T1 sequence (P15056 whole entry): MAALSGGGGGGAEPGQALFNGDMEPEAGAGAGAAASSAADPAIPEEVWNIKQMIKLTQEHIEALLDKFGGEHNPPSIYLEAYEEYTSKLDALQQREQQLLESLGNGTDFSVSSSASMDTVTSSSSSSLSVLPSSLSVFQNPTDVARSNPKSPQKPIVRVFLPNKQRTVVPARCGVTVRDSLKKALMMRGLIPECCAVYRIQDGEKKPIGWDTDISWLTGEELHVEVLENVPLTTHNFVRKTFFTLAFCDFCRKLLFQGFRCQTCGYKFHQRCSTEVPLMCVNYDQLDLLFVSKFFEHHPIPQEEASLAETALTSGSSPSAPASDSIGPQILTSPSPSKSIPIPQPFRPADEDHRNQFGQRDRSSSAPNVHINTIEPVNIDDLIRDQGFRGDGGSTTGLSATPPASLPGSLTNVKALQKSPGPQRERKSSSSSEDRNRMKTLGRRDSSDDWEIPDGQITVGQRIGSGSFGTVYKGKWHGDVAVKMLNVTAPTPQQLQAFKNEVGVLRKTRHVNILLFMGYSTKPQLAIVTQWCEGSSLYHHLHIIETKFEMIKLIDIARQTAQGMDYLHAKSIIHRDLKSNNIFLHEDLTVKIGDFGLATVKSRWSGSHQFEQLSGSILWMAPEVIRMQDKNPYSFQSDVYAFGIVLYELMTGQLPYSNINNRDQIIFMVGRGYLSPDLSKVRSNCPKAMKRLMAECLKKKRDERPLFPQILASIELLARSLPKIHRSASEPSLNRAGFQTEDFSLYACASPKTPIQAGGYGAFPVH

[2] = target: T1, Serine/threonine-protein kinase B-raf; test: Inhibition of BRAF in NRAS Q61K mutant-driven human SBcl2 cells assessed as suppression of vemurafenib-induced phosphorylation of MEK expression at 300 uM administered via electroporation for 30 mins followed by vemurafenib addition and measured after 1 hr by Western blot analysis
[3] = target: T1, Serine/threonine-protein kinase B-raf; test: Inhibition of BRAF in NRAS Q61K mutant-driven human SBcl2 cells assessed as suppression of vemurafenib-induced phosphorylation of ERK expression at 300 uM administered via electroporation for 30 mins followed by vemurafenib addition and measured after 1 hr by Western blot analysis
MCF-10A [4] = test: Antiproliferative activity against EGF-dependent human MCF10A cells assessed as inhibition of colony growth at 2 uM supplemented with fresh medium containing compound every 2 days for 11 days; format: functional
[5] = target: T1, Serine/threonine-protein kinase B-raf; test: Inhibition of BRAF in NRAS Q61K mutant-driven human SBcl2 cells assessed as suppression of vemurafenib-induced phosphorylation of ERK expression administered via electroporation for 30 mins followed by vemurafenib addition and measured after 1 hr by Western blot analysis
[6] = target: T1, Serine/threonine-protein kinase B-raf; test: Inhibition of BRAF in NRAS Q61K mutant-driven human SBcl2 cells assessed as suppression of vemurafenib-induced phosphorylation of MEK expression administered via electroporation for 30 mins followed by vemurafenib addition and measured after 1 hr by Western blot analysis
MCF-10A [7] = test: Antiproliferative activity against EGF-dependent human MCF10A cells assessed as inhibition of colony growth at 1.5 uM supplemented with fresh medium containing compound every 2 days for 11 days; format: functional

Structure (SMILES): CC[C@H](C)[C@H](NC(=O)[C@H](CC(C)C)NC(=O)[C@@H](NC(=O)[C@H](CC(N)=O)NC(=O)[C@@H](NC(=O)[C@H](Cc1cnc[nH]1)NC(=O)[C@H](CCCNC(=N)N)NC(=O)[C@@H](NC(=O)[C@H](CCCCN)NC(=O)[C@H](CCCNC(=N)N)NC(=O)[C@H](CC(C)C)NC(=O)[C@@H](NC(=O)CN)C(C)C)[C@@H](C)O)C(C)C)[C@@H](C)CC)C(=O)N[C@@H](Cc1ccccc1)C(=O)N[C@@H](CCSC)C(=O)NCC(=O)N[C@@H](Cc1ccc(O)cc1)C(=O)N[C@@H](CO)C(=O)N[C@H](C(=O)O)[C@@H](C)O
Kd ([1]; read-out: Kd): 4.1 µM

Kd ([1]; read-out: Kd): 1.88 µM
Structure (SMILES): CC[C@H](C)[C@H](NC(=O)[C@H](CC(N)=O)NC(=O)[C@@H](NC(=O)[C@H](Cc1cnc[nH]1)NC(=O)[C@H](CCCNC(=N)N)NC(=O)[C@@H](NC(=O)[C@H](CCCCN)NC(=O)[C@H](CCCNC(=N)N)NC(=O)[C@H](CC(C)C)NC(=O)[C@@H](NC(=O)CN)C(C)C)[C@@H](C)O)C(C)C)C(=O)N[C@@H](CC(C)C)C(=O)N[C@@H](CC(C)C)C(=O)N[C@@H](Cc1ccccc1)C(=O)N[C@@H](CCSC)C(=O)NCC(=O)O (H-GVLRKTRHVNILLFMG-OH)

Kd [1]: Not Active
Structure (SMILES): CC[C@H](C)[C@H](NC(=O)[C@H](CC(N)=O)NC(=O)[C@@H](NC(=O)[C@H](Cc1cnc[nH]1)NC(=O)[C@H](CCCNC(=N)N)NC(=O)[C@@H](NC(=O)[C@H](CCCCN)NC(=O)[C@H](CCCNC(=N)N)NC(=O)[C@H](CC(C)C)NC(=O)[C@@H](NC(=O)CN)C(C)C)[C@@H](C)O)C(C)C)C(=O)N[C@@H](CC(C)C)C(=O)N[C@@H](CC(C)C)C(=O)N[C@@H](CC(=O)O)C(=O)N[C@@H](CCSC)C(=O)NCC(=O)N[C@@H](Cc1ccc(O)cc1)C(=O)N[C@@H](CO)C(=O)N[C@H](C(=O)O)[C@@H](C)O

inhibition [2]: 100%
inhibition [3]: 100%
inhibition [5]: Dose-dependent effect
inhibition [6]: Dose-dependent effect
Structure (SMILES): CC[C@H](C)[C@H](NC(=O)[C@H](CC(N)=O)NC(=O)[C@@H](NC(=O)[C@H](Cc1cnc[nH]1)NC(=O)[C@H](CCCNC(=N)N)NC(=O)[C@@H](NC(=O)[C@H](CCCCN)NC(=O)[C@H](CCCNC(=N)N)NC(=O)[C@H](CC(C)C)NC(=O)[C@@H](NC(=O)CN)C(C)C)[C@@H](C)O)C(C)C)C(=O)N[C@@H](CC(C)C)C(=O)N[C@@H](CC(C)C)C(=O)N[C@@H](Cc1ccccc1)C(=O)N[C@@H](CCSC)C(=O)NCC(=O)N[C@@H](Cc1ccc(O)cc1)C(=O)N[C@@H](CO)C(=O)N[C@H](C(=O)O)[C@@H](C)O
inhibition (INH) (MCF-10A [4]): 100%

Kd [1]: Not Active
Structure (SMILES): CC[C@H](C)[C@H](NC(=O)[C@H](CC(N)=O)NC(=O)[C@@H](NC(=O)[C@H](Cc1ccccc1)NC(=O)[C@H](CCCNC(=N)N)NC(=O)[C@@H](NC(=O)[C@H](CCCCN)NC(=O)[C@H](CCCNC(=N)N)NC(=O)[C@H](CC(C)C)NC(=O)[C@@H](NC(=O)CN)C(C)C)[C@@H](C)O)C(C)C)C(=O)N[C@@H](CC(C)C)C(=O)N[C@@H](CC(C)C)C(=O)N[C@@H](Cc1ccccc1)C(=O)N[C@@H](CCSC)C(=O)NCC(=O)N[C@@H](Cc1ccc(O)cc1)C(=O)N[C@@H](CO)C(=O)N[C@H](C(=O)O)[C@@H](C)O

Structure (SMILES): CC[C@H](C)[C@H](NC(=O)[C@H](CC(N)=O)NC(=O)[C@H](C)NC(=O)[C@H](Cc1cnc[nH]1)NC(=O)[C@H](CCCNC(=N)N)NC(=O)[C@@H](NC(=O)[C@H](CCCCN)NC(=O)[C@H](CCCNC(=N)N)NC(=O)[C@H](CC(C)C)NC(=O)[C@@H](NC(=O)CN)C(C)C)[C@@H](C)O)C(=O)N[C@@H](CC(C)C)C(=O)N[C@@H](CC(C)C)C(=O)N[C@@H](Cc1ccccc1)C(=O)N[C@@H](CCSC)C(=O)NCC(=O)N[C@@H](Cc1ccc(O)cc1)C(=O)N[C@@H](CO)C(=O)N[C@H](C(=O)O)[C@@H](C)O
Kd ([1]; read-out: Kd): 4.75 µM

Structure (SMILES): CC[C@H](C)[C@H](NC(=O)[C@H](CC(N)=O)NC(=O)[C@@H](NC(=O)[C@H](Cc1cnc[nH]1)NC(=O)[C@H](CCCNC(=N)N)NC(=O)[C@H](CC(=O)O)NC(=O)[C@H](CCCCN)NC(=O)[C@H](CCCNC(=N)N)NC(=O)[C@H](CC(C)C)NC(=O)[C@@H](NC(=O)CN)C(C)C)C(C)C)C(=O)N[C@@H](CC(C)C)C(=O)N[C@@H](CC(C)C)C(=O)N[C@@H](Cc1ccccc1)C(=O)N[C@@H](CCSC)C(=O)NCC(=O)N[C@@H](Cc1ccc(O)cc1)C(=O)N[C@@H](CO)C(=O)N[C@H](C(=O)O)[C@@H](C)O
Kd ([1]; read-out: Kd): 2.2 µM

Structure (SMILES): CC[C@H](C)[C@H](NC(=O)[C@H](CC(N)=O)NC(=O)[C@@H](NC(=O)[C@H](Cc1cnc[nH]1)NC(=O)[C@H](CCCNC(=N)N)NC(=O)[C@@H](NC(=O)[C@H](CCCCN)NC(=O)[C@H](CCC(=O)O)NC(=O)[C@H](CC(C)C)NC(=O)[C@@H](NC(=O)CN)C(C)C)[C@@H](C)O)C(C)C)C(=O)N[C@@H](CC(C)C)C(=O)N[C@@H](CC(C)C)C(=O)N[C@@H](Cc1ccccc1)C(=O)N[C@@H](CCSC)C(=O)NCC(=O)N[C@@H](Cc1ccc(O)cc1)C(=O)N[C@@H](CO)C(=O)N[C@H](C(=O)O)[C@@H](C)O
Kd ([1]; read-out: Kd): 1.09 µM

Structure (SMILES): CC[C@H](C)[C@H](NC(=O)[C@H](CC(N)=O)NC(=O)[C@@H](NC(=O)[C@H](Cc1cnc[nH]1)NC(=O)[C@H](CCCNC(=N)N)NC(=O)[C@@H](NC(=O)[C@H](CCCCN)NC(=O)[C@H](CC(C)C)NC(=O)[C@H](CC(C)C)NC(=O)[C@@H](NC(=O)CN)C(C)C)[C@@H](C)O)C(C)C)C(=O)N[C@@H](CC(C)C)C(=O)N[C@@H](CC(C)C)C(=O)N[C@@H](Cc1ccccc1)C(=O)N[C@@H](CCSC)C(=O)NCC(=O)N[C@@H](Cc1ccc(O)cc1)C(=O)N[C@@H](CO)C(=O)N[C@H](C(=O)O)[C@@H](C)O
Kd ([1]; read-out: Kd): 0.54 µM

Structure (SMILES): CC[C@H](C)[C@H](NC(=O)[C@H](CC(N)=O)NC(=O)[C@@H](NC(=O)[C@H](Cc1cnc[nH]1)NC(=O)[C@H](CCCNC(=N)N)NC(=O)[C@@H](NC(=O)[C@H](CCCCN)NC(=O)[C@H](CCCNC(=N)N)NC(=O)[C@H](CC(C)C)NC(=O)[C@@H](N)C(C)C)[C@@H](C)O)C(C)C)C(=O)N[C@@H](CC(C)C)C(=O)N[C@@H](CC(C)C)C(=O)N[C@@H](Cc1ccccc1)C(=O)N[C@@H](CCSC)C(=O)NCC(=O)O
inhibition (INH) (MCF-10A [7]): 100%

Structure (SMILES): CC[C@H](C)[C@H](NC(=O)[C@H](CC(N)=O)NC(=O)[C@@H](NC(=O)[C@H](Cc1cnc[nH]1)NC(=O)[C@H](CCCNC(=N)N)NC(=O)[C@@H](NC(=O)[C@H](CCCCN)NC(=O)[C@H](CCCNC(=N)N)NC(=O)[C@H](CC(C)C)NC(=O)[C@@H](NC(=O)CN)C(C)C)[C@@H](C)O)C(C)C)C(=O)N[C@@H](C)C(=O)N[C@@H](CC(C)C)C(=O)N[C@@H](Cc1ccccc1)C(=O)N[C@@H](CCSC)C(=O)NCC(=O)N[C@@H](Cc1ccc(O)cc1)C(=O)N[C@@H](CO)C(=O)N[C@H](C(=O)O)[C@@H](C)O
Kd ([1]; read-out: Kd): 9.8 µM

Kd [1]: Not Active
Structure (SMILES): CC[C@H](C)[C@H](NC(=O)[C@H](C)NC(=O)[C@@H](NC(=O)[C@H](Cc1cnc[nH]1)NC(=O)[C@H](CCCNC(=N)N)NC(=O)[C@@H](NC(=O)[C@H](CCCCN)NC(=O)[C@H](CCCNC(=N)N)NC(=O)[C@H](CC(C)C)NC(=O)[C@@H](N)C(C)C)[C@@H](C)O)C(C)C)C(=O)N[C@@H](CC(C)C)C(=O)N[C@@H](CC(C)C)C(=O)N[C@@H](Cc1ccccc1)C(=O)N[C@@H](CCSC)C(=O)NCC(=O)O (H-VLRKTRHVAILLFMG-OH)

Kd [1]: Not Active
Structure (SMILES): CC[C@H](C)[C@H](NC(=O)[C@H](CC(N)=O)NC(=O)[C@@H](NC(=O)[C@H](Cc1cnc[nH]1)NC(=O)[C@H](Cc1cnc[nH]1)NC(=O)[C@@H](NC(=O)[C@H](CCCCN)NC(=O)[C@H](CCCNC(=N)N)NC(=O)[C@H](CC(C)C)NC(=O)[C@@H](NC(=O)CN)C(C)C)[C@@H](C)O)C(C)C)C(=O)N[C@@H](CC(C)C)C(=O)NCC(=O)N[C@@H](Cc1ccccc1)C(=O)N[C@@H](Cc1c[nH]c2ccccc12)C(=O)NCC(=O)N[C@@H](Cc1ccc(O)cc1)C(=O)N[C@@H](CO)C(=O)N[C@H](C(=O)O)[C@@H](C)O (H-GVLRKTHHVNILGFWGYST-OH)

Structure (SMILES): CSCC[C@@H]1NC(=O)[C@H](Cc2ccccc2)NC(=O)[C@H](CC(C)C)NC(=O)[C@H](CC(C)C)NC(=O)[C@H](CCC(=O)O)NC(=O)[C@H](CC(N)=O)NC(=O)[C@H](C(C)C)NC(=O)[C@H](Cc2cnc[nH]2)NC(=O)[C@H](CCCNC(=N)N)NC(=O)[C@H](CCCCN)NC(=O)[C@H](CCCCN)NC(=O)[C@H](CCCNC(=N)N)NC(=O)[C@H](CC(C)C)NC(=O)CNC1=O
Kd ([1]; read-out: Kd): 1.89 µM
